Source: patent US10023708B2, “Method of producing a delivery device” (PTT HOLDING APS, priority 2011, dated 2018)

Legend:
[1] = Loading of Ceragenin CSA-13 into IPN discs and its release; details: IPN discs about 20% PHEMA loaded in EtOH + CO2
Protocol: 6 IPN discs (010 mm, thickness 1-2 mm) obtained from Example 1 and with about 20% PHEMA (total mass about 1.3266 g) was loaded with about 500 mg Ceragenin CSA-13. The loading solvent was 2.00 ml 99.8% EtOH supplied by Merck (Germany) and N48 CO2 (supplied by Air Liquid Denmark A/S (Denmark)). The Ceragenin CSA-13 was initially dissolved in the 2.00 ml 99.8% EtOH and injected into a reactor of 16 ml comprising the discs. The pressure was raised to about 300 bars by injecting CO2 and the temperature was raised to about 75° C. The discs were treated at this pressure and temperature under stirring (1100 rpm) for 21 hours and 50 minutes, where after the pressure was reduced, the discs were withdrawn and allowed to cool down.

[2] = Release of miconazole nitrate from loaded IPN discs versus PDMS discs; assay type: physicochemical; details: 75° C., 2 hours
Protocol: a) 10 PDMS (Polydimethylsiloxane) (silpuran 6000/40 supplied by Wacker) discs within the same mass range were used per high pressure vessel for loading drug into PDMS. […] The reactors were then coupled to a scCO2 system. scCO2 was applied at 350 bars until the pressure inside the reactors also reached 350 bars. The pressure remained at 350 bars throughout the procedure. The reaction was left for equilibration for 2 hours. d) The pressure was released, and the discs loaded with miconazole nitrate were gently cleaned with ethanol, and stored protected from light. a) 10 PDMS (Polydimethylsiloxane) discs within the same mass range were used per high pressure vessel for loading drug into PDMS. […] The reactors were then coupled to a scCO2 system. scCO2 was applied at 350 bars until the pressure inside the reactors also reached 350 bars. This pressure was maintained throughout the procedure. The reaction was left for equilibration for 2 hours. d) The pressure was released, and the discs loaded with miconazole nitrate were gently cleaned with ethanol, and stored protected from light.

[3] = Determination of work of adhesion Wsc between chemical compound and first polymer; assay type: physicochemical
Description: (§1) The “work of adhesion” between two dissimilar materials is a measure of the energy required to separate the two dissimilar materials from each other. The work of adhesion is indicated with Wxy, wherein x and y respectively are the two dissimilar materials in question. Wxy is herein determined in joule per square meter of contact area of the x and y material to be separated (J/m^2). The contact area of the second polymer and the chemical component is proportional to the amount of a given chemical component and accordingly the Whc value could also be determined as J/mol chemical component. Work of adhesion (Whc) between the second polymer (h) and the chemical component (c) is determined according to the formula: Whc=γhn+γcn−γch, wherein γhn is the interfacial tension between h and n, γcn is the interfacial tension between c and n, and γch is the interfacial tension between c and h, where h=second polymer, n=normal saline and c=chemical component. The respective values of interfacial tension can be determined by any well known method or they can be calculated. Interfacial tensions can be determined from surface tensions of the individual compound, which can be measured or estimated from e.g. HSP which can be measured or estimated from group contribution calculations based on the chemical structure of the individual compound in question. […] At 1 bar and 25° C. the respective work of adhesion between sulfamethizole and the two polymers PDMS and PHEMA of the IPN of Example 1 was determined with respectively EtOH and water as loading solvents. Work of adhesion between sulfamethizole and the two polymers PDMS and PHEMA of the IPN of Example 1 was determined with varying volume fractions of EtOH in a loading solvent of EtOH and scCO2. The determination was determined at 300 bars and 75° C.

[4] = Determination of work of adhesion Whc between chemical compound and second polymer; assay type: physicochemical
Description: as §1

[5] = Release of sulfamethizole from loaded IPN discs soaked in phosphate buffer; assay type: physicochemical; details: soaked in phosphate buffer solution at pH 4.5 over a period of about 14 days
Protocol: 2.5 g sulfamethizole (Unikem) was mixed with 60 ml sodium thiosulfate solution (12 ml 0.1 M was diluted to 60 ml using deionized water).
Drug loading was performed by placing 10 discs obtained from Example 1 in a 16 ml reactor. 2.00 ml of the above sulfamethizole mixture and 2.00 ml 99.8% EtOH supplied by Merck (Germany) was fed to the reactor. The discs were kept under stirring during the treatment time. The pressure in the reactor was initially raised to about 100 bars and with a temperature of about 44° C. Thereafter the temperature was raised to 75° C. and the pressure increased to 300 bars with CO2 (N48 CO2 supplied by Air Liquid Denmark A/S).

[6] = 1 bar, 25° C., loading solvent EtOH
[7] = 1 bar, 25° C., loading solvent Water
[8] = 300 bars, 75° C., volume fractions EtOH 0.0000 / scCO2 1.0000
[9] = 300 bars, 75° C., volume fractions EtOH 0.0625 / scCO2 0.9375
[10] = 300 bars, 75° C., volume fractions EtOH 0.1250 / scCO2 0.8750
[11] = 300 bars, 75° C., volume fractions EtOH 0.1875 / scCO2 0.8125
[12] = 300 bars, 75° C., volume fractions EtOH 0.2500 / scCO2 0.7500
[13] = 300 bars, 75° C., volume fractions EtOH 0.3125 / scCO2 0.6875
[14] = 300 bars, 75° C., volume fractions EtOH 0.3750 / scCO2 0.6250
[15] = 300 bars, 75° C., volume fractions EtOH 0.4375 / scCO2 0.5625
[16] = 300 bars, 75° C., volume fractions EtOH 0.5000 / scCO2 0.5000
[17] = 300 bars, 75° C., volume fractions EtOH 0.5625 / scCO2 0.4375
[18] = 300 bars, 75° C., volume fractions EtOH 0.6250 / scCO2 0.3750
[19] = 300 bars, 75° C., volume fractions EtOH 0.6875 / scCO2 0.3125
[20] = 300 bars, 75° C., volume fractions EtOH 0.7500 / scCO2 0.2500
[21] = 300 bars, 75° C., volume fractions EtOH 0.8125 / scCO2 0.1875
[22] = 300 bars, 75° C., volume fractions EtOH 0.8750 / scCO2 0.1250
[23] = 300 bars, 75° C., volume fractions EtOH 0.9375 / scCO2 0.0625
[24] = 300 bars, 75° C., volume fractions EtOH 1.0000 / scCO2 0.0000

CCCCCCCCNCCC[C@@H](C)[C@H]1CC[C@H]2[C@@H]3[C@H](OCCCN)C[C@@H]4C[C@H](OCCCN)CC[C@]4(C)[C@H]3C[C@H](OCCCN)[C@]12C [Ceragenin CSA-13]
release from the delivery device, microbiological effect [1]: can be released in sufficient amounts to provide a significant microbiological effect

Clc1ccc(COC(Cn2ccnc2)c2ccc(Cl)cc2Cl)c(Cl)c1 (stereo not drawn) [miconazole nitrate]
amount releasable from the IPN discs compared with the PDMS discs ([2]; Test 1: loaded using scCO2, 350 bars): much higher | amount releasable from the IPN discs compared with the PDMS discs ([2]; Test 2: loaded using scCO2 and methanol, 350 bars): much higher

Cc1nnc(NS(=O)(=O)c2ccc(N)cc2)s1 [sulfamethizole]
Work of adhesion Wsc s = PDMS c = sulfamethizole [3, 6]: 6.3434 J/m^2 | Work of adhesion Wsc s = PDMS c = sulfamethizole [3, 7]: 57.7309 J/m^2 | Work of adhesion Wsc s = PDMS c = sulfamethizole [3, 8]: 14.1969 J/m^2 | Work of adhesion Wsc s = PDMS c = sulfamethizole [3, 9]: 11.2585 J/m^2 | Work of adhesion Wsc s = PDMS c = sulfamethizole [3, 10]: 8.714 J/m^2 | Work of adhesion Wsc s = PDMS c = sulfamethizole [3, 11]: 6.5641 J/m^2 | Work of adhesion Wsc s = PDMS c = sulfamethizole [3, 12]: 4.8092 J/m^2 | Work of adhesion Wsc s = PDMS c = sulfamethizole [3, 13]: 3.4498 J/m^2 | Work of adhesion Wsc s = PDMS c = sulfamethizole [3, 14]: 2.4864 J/m^2 | Work of adhesion Wsc s = PDMS c = sulfamethizole [3, 15]: 1.9195 J/m^2 | Work of adhesion Wsc s = PDMS c = sulfamethizole [3, 16]: 1.7497 J/m^2 | Work of adhesion Wsc s = PDMS c = sulfamethizole [3, 17]: 1.9773 J/m^2 | Work of adhesion Wsc s = PDMS c = sulfamethizole [3, 18]: 2.6029 J/m^2 | Work of adhesion Wsc s = PDMS c = sulfamethizole [3, 19]: 3.6271 J/m^2 | Work of adhesion Wsc s = PDMS c = sulfamethizole [3, 20]: 5.0502 J/m^2 | Work of adhesion Wsc s = PDMS c = sulfamethizole [3, 21]: 6.8727 J/m^2 | Work of adhesion Wsc s = PDMS c = sulfamethizole [3, 22]: 9.0953 J/m^2 | Work of adhesion Wsc s = PDMS c = sulfamethizole [3, 23]: 11.7183 J/m^2 | Work of adhesion Wsc s = PDMS c = sulfamethizole [3, 24]: 14.7422 J/m^2 | Work of adhesion Whc h = PHEMA c = sulfamethizole [4, 6]: 3.8908 J/m^2 | Work of adhesion Whc h = PHEMA c = sulfamethizole [4, 7]: 38.3326 J/m^2 | Work of adhesion Whc h = PHEMA c = sulfamethizole [4, 8]: 29.8588 J/m^2 | Work of adhesion Whc h = PHEMA c = sulfamethizole [4, 9]: 25.3418 J/m^2 | Work of adhesion Whc h = PHEMA c = sulfamethizole [4, 10]: 21.2182 J/m^2 | Work of adhesion Whc h = PHEMA c = sulfamethizole [4, 11]: 17.4885 J/m^2 | Work of adhesion Whc h = PHEMA c = sulfamethizole [4, 12]: 14.1531 J/m^2 | Work of adhesion Whc h = PHEMA c = sulfamethizole [4, 13]: 11.2126 J/m^2 | Work of adhesion Whc h = PHEMA c = sulfamethizole [4, 14]: 8.6675 J/m^2 | Work of adhesion Whc h = PHEMA c = sulfamethizole [4, 15]: 6.5181 J/m^2 | Work of adhesion Whc h = PHEMA c = sulfamethizole [4, 16]: 4.7652 J/m^2 | Work of adhesion Whc h = PHEMA c = sulfamethizole [4, 17]: 3.4091 J/m^2 | Work of adhesion Whc h = PHEMA c = sulfamethizole [4, 18]: 2.4503 J/m^2 | Work of adhesion Whc h = PHEMA c = sulfamethizole [4, 19]: 1.8894 J/m^2 | Work of adhesion Whc h = PHEMA c = sulfamethizole [4, 20]: 1.7267 J/m^2 | Work of adhesion Whc h = PHEMA c = sulfamethizole [4, 21]: 1.9629 J/m^2 | Work of adhesion Whc h = PHEMA c = sulfamethizole [4, 22]: 2.5985 J/m^2 | Work of adhesion Whc h = PHEMA c = sulfamethizole [4, 23]: 3.6338 J/m^2 | Work of adhesion Whc h = PHEMA c = sulfamethizole [4, 24]: 5.0694 J/m^2 | amount of loaded compound released from the discs [5]: the major amount
